Test systems include 786-0 renal; HCC-2998 colon; HCT-116 colon; KM12 colon; SK-MEL-5 melanoma; SN12C renal; SNB-19 CNS; SNB-75 CNS; U251 CNS; UACC-62 melanoma.
What all share (assay): NCI anticancer screen, dose series, 48 h

This note sets out measurements from PubChem BioAssay (NCI).

Where “and” joins values, the source holds several entries; their conditions need not be identical. Identical values can stand only once.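 48-hour exposure; five concentrations; linearly interpolated endpoints. GI50 = concentration required for 50% inhibition of growth. The concentration for full growth arrest is given as TGI.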 Some results are limits rather than exact numbers.

On to `C=CCSc1n[nH]c(-c2cccs2)n1`, for which the GI50 in the experiment on 786-0 renal, with HCC-2998 colon, in the experiment with HCT-116 colon, in the experiment on KM12 colon, in the experiment with SK-MEL-5 melanoma and in the experiment on SN12C renal was above 100 µM in each case. The GI50 in the experiment with SNB-19 CNS, with SNB-75 CNS, in the experiment on U251 CNS and in the experiment with UACC-62 melanoma was above 100 µM throughout. Also, the TGI in the experiment on 786-0 renal, in the experiment on HCC-2998 colon, with HCT-116 colon, with KM12 colon, in the experiment with SK-MEL-5 melanoma and in the experiment with SN12C renal was above 100 µM throughout. For the same compound, the TGI in the experiment with SNB-19 CNS, with SNB-75 CNS, in the experiment with U251 CNS and with UACC-62 melanoma was above 100 µM throughout.

For the compound `C=CC1=C(C)C2=NC1=CC1=NC(=C(CC)/C1=C/O)C=C1C=C3C(=O)C(C(=O)OC)C(=C4NC(=C2)C(C)C4CCC(=O)OC/C=C(\C)CCCC(C)CCCC(C)CCCC(C)C)C3=N1` (centres undefined) (tested in a mixture with another compound), the TGI with 786-0 renal, in the experiment with HCC-2998 colon, with HCT-116 colon, in the experiment with KM12 colon, with SK-MEL-5 melanoma and in the experiment on SN12C renal was above 100 µM throughout. For the same compound, the TGI in the experiment on SNB-19 CNS, with SNB-75 CNS, in the experiment with U251 CNS and in the experiment on UACC-62 melanoma was above 100 µM each time.

For the compound `C=C1CC2(OC1=O)c1ccccc1CCc1ccccc12`, the TGI came to 3.17 µM with 786-0 renal; 6.51 µM in the experiment with HCC-2998 colon; 2.75 µM in the experiment on HCT-116 colon; 9.4 µM in the experiment on KM12 colon; 28 µM in the experiment on SK-MEL-5 melanoma; 5.47 µM in the experiment on SN12C renal. Besides, the TGI in the experiment with SNB-19 CNS turned out to be 15.6 µM; in the experiment on SNB-75 CNS, 15.6 µM; in the experiment on U251 CNS, 18.1 µM; in the experiment on UACC-62 melanoma, 15.9 µM.

As for `O=C1OC(c2ccc([N+](=O)[O-])cc2)=N/C1=C\c1ccc(O)cc1`, the TGI with 786-0 renal, in the experiment on HCC-2998 colon, with HCT-116 colon, with KM12 colon, in the experiment on SK-MEL-5 melanoma and with SN12C renal was above 100 µM each time. The TGI in the experiment with SNB-19 CNS, in the experiment with SNB-75 CNS, in the experiment with U251 CNS and in the experiment on UACC-62 melanoma was above 100 µM throughout.

Take `Nc1nc(N)c(-c2ccccc2)c(C(=O)Nc2ccc(Cl)c(Cl)c2)n1`: the TGI in the experiment on 786-0 renal, in the experiment with HCC-2998 colon, in the experiment with HCT-116 colon, in the experiment on KM12 colon, with SK-MEL-5 melanoma and in the experiment with SN12C renal was above 100 µM in each case. Also, the TGI in the experiment with SNB-19 CNS, in the experiment with SNB-75 CNS, in the experiment on U251 CNS and in the experiment on UACC-62 melanoma was above 100 µM each time.

On to `COCCN1C2=CCCCC2=Nc2c(N)nc(N)nc21`, for which the TGI in the experiment on 786-0 renal, in the experiment with HCC-2998 colon, in the experiment with HCT-116 colon, with KM12 colon, with SK-MEL-5 melanoma and in the experiment on SN12C renal was above 100 µM throughout. In addition, the TGI in the experiment with SNB-19 CNS, in the experiment on SNB-75 CNS, in the experiment with U251 CNS and with UACC-62 melanoma was above 100 µM in each case.

As to `CCC(=S)N(C)O`, the TGI in the experiment with 786-0 renal is above 81.1 µM; in the experiment with HCC-2998 colon, above 95.7 µM; with HCT-116 colon, 30.9 µM; in the experiment on KM12 colon it was above 93.1 µM; with SK-MEL-5 melanoma it was 51 µM; with SN12C renal, above 100 µM. Besides, the TGI was above 100 µM with SNB-19 CNS, above 95.4 µM in the experiment with SNB-75 CNS, above 100 µM with U251 CNS and 78.3 µM in the experiment with UACC-62 melanoma.

`C[C@]12CC[C@@H]3c4ccc(O)cc4CC[C@H]3[C@@H]1CC[C@@H]2NS(=O)(=O)c1cccc(Br)c1`: the GI50 in the experiment on 786-0 renal is 3.25 µM; in the experiment on HCC-2998 colon, 4.31 µM; in the experiment on HCT-116 colon, 3.03 µM; with KM12 colon it was 2.31 µM; in the experiment with SK-MEL-5 melanoma, 1.77 µM; in the experiment with SN12C renal, 2.25 µM. Moreover, the GI50 with SNB-19 CNS is 7.09 µM; in the experiment on SNB-75 CNS it was 2.9 µM; in the experiment on U251 CNS it was 3.23 µM; with UACC-62 melanoma, 3.19 µM. Also, the TGI with 786-0 renal turned out to be 10.4 µM; in the experiment with HCC-2998 colon, 15.9 µM; with HCT-116 colon, 10.2 µM; in the experiment with KM12 colon, 6.76 µM; in the experiment with SK-MEL-5 melanoma, 3.31 µM; in the experiment on SN12C renal it was 5.73 µM. Besides, the TGI in the experiment on SNB-19 CNS was determined as 20.4 µM; in the experiment with SNB-75 CNS, 13.5 µM; in the experiment on U251 CNS, 11 µM; in the experiment with UACC-62 melanoma, 12.9 µM.

With `O=C(O)[C@@H]1C[C@@H](O)CN1`, the TGI in the experiment with 786-0 renal, in the experiment with HCC-2998 colon, with HCT-116 colon, in the experiment with KM12 colon, in the experiment with SK-MEL-5 melanoma and in the experiment on SN12C renal was above 100 µM each time. The TGI in the experiment with SNB-19 CNS, in the experiment with SNB-75 CNS, with U251 CNS and in the experiment with UACC-62 melanoma was above 100 µM in each case.

On to `CC/C(=C(\c1ccc(O)cc1)c1ccc(OCCNC)cc1)c1ccccc1`, for which the GI50 in the experiment with 786-0 renal is 1.73 µM and 1.72 µM; in the experiment with HCC-2998 colon it was 1.8 µM and 1.78 µM and 1.88 µM; in the experiment with HCT-116 colon, 1.61 µM and 1.54 µM and 1.73 µM; in the experiment on KM12 colon, 1.7 µM and 1.64 µM and 1.81 µM; with SK-MEL-5 melanoma, 1.77 µM and 1.66 µM and 1.71 µM; with SN12C renal it was 1.98 µM and 2.86 µM and 3.02 µM. Besides, the GI50 is 3.61 µM and 2.67 µM and 2.63 µM with SNB-19 CNS; 2.15 µM and 1.96 µM and 1.32 µM in the experiment with SNB-75 CNS; 1.57 µM and 1.5 µM and 1.66 µM in the experiment on U251 CNS; 1.66 µM and 1.65 µM and 1.78 µM with UACC-62 melanoma. Also, the TGI was 3.13 µM and 3.19 µM and 3.35 µM in the experiment with 786-0 renal; 3.28 µM and 3.23 µM and 3.62 µM in the experiment with HCC-2998 colon; 2.98 µM and 2.95 µM and 3.22 µM with HCT-116 colon; 3.15 µM and 3.14 µM and 3.49 µM in the experiment with KM12 colon; 3.17 µM and 3.07 µM with SK-MEL-5 melanoma; 8.84 µM and 9.58 µM and 10.4 µM in the experiment with SN12C renal. Besides, the TGI in the experiment with SNB-19 CNS is 10.9 µM and 8.03 µM and 7.01 µM; with SNB-75 CNS it was 7.39 µM and 6.81 µM and 2.76 µM; in the experiment with U251 CNS it was 2.92 µM and 2.83 µM and 3.15 µM; with UACC-62 melanoma, 3.41 µM and 3.24 µM and 3.44 µM.

With `CN/N=C(\C)CC(=O)Nc1cccc(Cl)c1C`, the TGI in the experiment on 786-0 renal, with HCC-2998 colon, in the experiment on HCT-116 colon, in the experiment on KM12 colon, with SK-MEL-5 melanoma and in the experiment with SN12C renal was above 100 µM in each case. Moreover, the TGI in the experiment with SNB-19 CNS, with SNB-75 CNS, in the experiment on U251 CNS and with UACC-62 melanoma was above 100 µM throughout.

Take `Cc1ccccc1NC(=O)C(=O)Cc1nc2ccccc2s1`: the TGI in the experiment on 786-0 renal, in the experiment on HCC-2998 colon, in the experiment on HCT-116 colon, in the experiment with KM12 colon, with SK-MEL-5 melanoma and with SN12C renal was above 100 µM in each case. The TGI in the experiment on SNB-19 CNS, in the experiment on SNB-75 CNS and with U251 CNS was above 100 µM in each case.
